row,melting point [°C],SMILES
1,146 to 150,Cn1cnc([N+](=O)[O-])c1Cl
2,214 to 216,CSc1nc(N)nc(-c2cc(Cl)cc(Cl)c2)n1
3,-83,COC(C)COC(C)CO (configuration not stated)
4,64 to 66,S=C=Nc1ccc2c(c1)OCCO2
5,184 to 187,c1ccc(P(c2ccccc2)c2ccccc2Oc2ccccc2P(c2ccccc2)c2ccccc2)cc1
6,50,CC[C@H]1CC[C@H](C(=O)O)CC1
7,111,Nn1c(Cc2ccccc2)nc2ccccc2c1=O
8,76 to 77,Cn1nc(-c2cccs2)cc1C=O
9,84 to 86,O=[N+]([O-])c1ccc(OCCN2CCOCC2)cc1
10,97,c1ccc(COc2ccc3ccccc3c2)cc1
11,131,O=[N+]([O-])c1ccccc1/C=C/c1nc2ccccc2s1
12,64 to 66,CCOC(=O)Nc1ccc(Cl)cc1
13,198,O=[N+]([O-])c1ccc(Nc2ccccc2O)c([N+](=O)[O-])c1
14,173 to 176,OCc1ccc(-c2ccncc2)cc1
15,47,O=[N+]([O-])c1c(F)ccc(Cl)c1F
16,70,CCOC(=O)C(C#N)=C(SC)SC
17,57 to 63,CC(C)(C)OC(=O)N1OC1c1ccc(C#N)cc1 (configuration not stated)
18,166,CC1=N[C@]2(c3ccccc3)Oc3c(c4ccccc4c4ccccc34)O[C@@H]2O1
19,110,O=C1C(=Cc2ccccc2)Cc2ccccc21
20,133 to 135,Nc1n[nH]cc1Br
21,78 to 79,N#CCc1ccc(OCc2c(F)cccc2Cl)cc1
22,59,O=[N+]([O-])c1ccccc1-n1cccc1

row,melting point [°C],SMILES
1,215,O=C1NN=C(C(F)(F)F)C1=NNc1ccc(Cl)cc1
2,223 to 224,CS(=O)(=O)c1cc(Cl)c(O)c(Cl)c1
3,60,Cc1ccc2[nH]ccc2c1
4,71.5,Cc1ccc(N=Nc2ccccc2)cc1
5,120,COC(=O)c1cc(C)[nH]c1C
6,235 to 236,Oc1cc(Cl)c(-c2ccccc2)nn1
7,150,CC(=O)Oc1cc(OC(C)=O)c2c(=O)c(OC(C)=O)c(-c3ccc(OCc4ccccc4)cc3)oc2c1
8,209,O=C1NC2=Cc3ccccc3C2(O)Cc2ccccc21 (configuration not stated)
9,146,O=C1c2ccccc2C(=O)C1c1ccc(Cl)cc1
10,-104,CCNC(C)CC (configuration not stated)
11,235,c1ccc(-c2nc(-c3ccccc3)nc(-c3ccccc3)n2)cc1
12,78,ON=C(c1ccccc1)c1ccc(O)cc1
13,188 to 189,Cc1cc(C)c(CC(=O)c2oc3ccccc3c2N)c(C)c1
14,196,O=C(O)c1sccc1Br
15,79,OCC1(O)COC(O)(CO)CO1 (configuration not stated)
16,132,CCCC(=O)C=Cc1ccc(O)c(O)c1
17,75,O=C(Nc1cccc(Cl)c1)OCC#CCCl
18,173 to 177,"CCC12CCCN3CCc4c(n(c5ccccc45)C(=O)C1)C32 (single isomer, unassigned; (-))"
19,227,O=c1oc2c(o1)=C(c1ccccc1)S(=O)(=O)C=2c1ccccc1
20,114 to 119,c1ccc(-c2sc(-c3ccccc3)c3ccccc23)cc1
21,209,Cc1cccc(/N=N/c2c(N)nn3c(C(F)(F)F)cc(C)nc23)c1
22,163,CN1C(=O)NC(=O)C1(C)C

row,melting point [°C],SMILES
1,175 to 185,O=[N+]([O-])c1cccc2c(Br)n[nH]c12
2,82,CC(=O)C(C#N)(Cc1ccc([N+](=O)[O-])cc1)c1ccccc1 (configuration not stated)
3,105 to 107,COc1ccc([N+](=O)[O-])cc1N=C=S
4,75 to 76,O=S(=O)(Cl)c1cc2ccccc2s1
5,63 to 63.6,CC1=C(C#N)Cc2ccccc21
6,16.5,Oc1cccc(S)c1
7,-99,C/C=C/Cl
8,116,CC(OCc1ccccc1)C(NC(=O)OC(C)(C)C)C(=O)O (configuration not stated)
9,293 to 294,O=C(O)c1cc2cccnc2s1
10,-3.2,CNC=O
11,-31.8,CC1CCCC(C)(C)C1=O (configuration not stated)
12,92,COC(=O)C1CCCc2c1[nH]c1ccc(OC)cc21 (configuration not stated)
13,140,Cc1ccc(C)c2c1C(=O)c1ccccc1C2=O
14,206,CC(=O)OC1(C(C)=O)CCC2C3CC(C)C4=CC(=O)CCC4(C)C3CCC21C (configuration not stated)
15,44,O=Cc1cc(I)ccc1F
16,218,O=C(O)CSc1ccccc1C(=O)O
17,163,CC(C(=O)O)=C(C)c1cccc(C)c1
18,199 to 201,Clc1ccc(Cc2c(N=Cc3ccccc3Cl)n[nH]c2N=Cc2ccccc2Cl)cc1
19,253,O=C(O)c1cc2ccccc2c2ccccc12
20,235 to 236,Cc1nc2scc(-c3ccccc3)c2c(=O)n1NC(=O)c1ccc(Cl)cc1
21,189,O=C1CC(c2ccc([N+](=O)[O-])cc2)=NN1c1ccccc1
22,150,CCOC(=O)c1[nH]c(C)c(S(=O)(=O)Cl)c1C

row,melting point [°C],SMILES
1,232,NS(=O)(=O)c1cc2c(cc1Cl)N=C(CSCc1ccccc1)NS2(=O)=O
2,187 to 188,CC(=O)OCC(OC(C)=O)C(OC(C)=O)C(OC(C)=O)C(OC(C)=O)C(N)=O (configuration not stated)
3,71 to 74,O=C(Cl)c1cccnc1Sc1ccccc1
4,-30,CCOC(=O)C(=O)C(=O)OCC
5,53 to 56,C1CCCC2OC2CC1 (configuration not stated)
6,42.8,Clc1cc(Cl)cc(C2(CC(Cl)(Cl)Cl)CO2)c1 (configuration not stated)
7,262,CC(=O)Nc1ccc2c(c1)Cc1cc([N+](=O)[O-])ccc1-2
8,86,COc1cc2c(cc1C(C)C)C(C(=O)O)C2 (configuration not stated)
9,131 to 132,Cc1c(S(=O)(=O)c2ccc(Cl)cc2)csc1C(=O)Cl
10,88 to 89,COC(=O)c1cc2ccccc2cn1
11,85 to 88,CCOC(=O)C(=CNc1cc(C)nn1C)C(=O)OCC
12,101,CCCCCC(N)=O
13,169,COc1ccc(Cl)cc1C(=O)NCCc1ccc(S(=O)(=O)NC(=O)NC2CCCCC2)cc1
14,137 to 138,NNC(=O)c1csc(-c2ccccc2)n1
15,68,COc1ccc(C(=O)c2ccccc2O)c(O)c1
16,160 to 167,COC(=O)c1cccc(C(=O)O)c1N
17,184 to 186,NNC(=O)Cc1nc(-c2cnccn2)no1
18,-55,C[Si](C)(C)Oc1ccccc1
19,84,CC1CCC(C(C)C)C(OC(=O)CC#N)C1 (configuration not stated)
20,233,C=C1C(C)CCC2(C)C3=C(C(=O)C4(CC4C)C(OC(C)=O)C3=O)C(OC(C)=O)C(O)C12 (configuration not stated)
21,208 to 210,CC1(C)C(N)=[N+]([O-])C(c2ccccc2)N1O (configuration not stated)
22,-34.8,CCCCCCCC(=O)OCCCCC

row,melting point [°C],SMILES
1,278 to 281,O=c1cc(C=C(O)C(F)(F)C(F)(F)F)[nH]c(=O)[nH]1
2,39 to 40,Nc1ccc(C(F)(F)F)nc1
3,79,CCOC(=O)C(Nc1cccc(NC(C(=O)OCC)C(=O)OCC)c1)C(=O)OCC
4,-8,c1ccnnc1
5,109,CC1(C)OC(=O)C(=Cc2ccc(-c3ccc(Cl)cc3)o2)C(=O)O1
6,33.5,C/C=C/c1ccc(O)c(OC)c1
7,116,Cc1cc(N)n(-c2ccccc2)n1
8,87,CC(=O)C(N=Nc1ccccc1)C(C)=O
9,67,COc1cc2c(cc1C)C(C#N)C2 (configuration not stated)
10,-34,Fc1ccccc1F
11,102,Cc1cc(C)c2c(c1)CC1CCCCN1C2=O (configuration not stated)
12,79 to 82,CCOC(=O)CCC(NP(=O)(OC)C(C)NC(=O)CCCCN1C(=O)c2ccccc2C1=O)C(=O)OCC (configuration not stated)
13,152,N/N=C(/C(=O)c1cccc2ccccc12)c1ccccc1
14,135 to 137,C#CCC1(CC#C)C(=O)OC(C)(C)OC1=O
15,90,N#Cc1cc(F)ccc1Br
16,128,CC(Oc1ccc2ccccc2c1)C(=O)Nc1ccccc1 (configuration not stated)
17,170,CC1(C)C2CCC1(C)C(/N=C\c1ccc([N+](=O)[O-])cc1)C2/N=C/c1ccc([N+](=O)[O-])cc1 (configuration not stated)
18,72 to 73,Cn1nc(CCl)cc1-c1ccco1

row,SMILES,melting point [°C]
1,CCOC(=O)C1=C(NC(=O)CCl)Oc2c(c(=O)oc3ccccc23)C1c1ccc(Br)cc1 (configuration not stated),158
2,CN(C)C(=O)Cl,-33
3,ClC1=C(Cl)C2(Cl)C3C4OC4(Cl)C(Cl)C3C1(Cl)C2(Cl)Cl (configuration not stated),144
4,CC(CCc1ccccc1)NC(C)C(O)c1cc(I)c(O)c(I)c1 (configuration not stated),212
5,C=CC1(C(C)CCC)C(=O)NC(=O)NC1=O (configuration not stated),90
6,CCCN(CCC)c1c([N+](=O)[O-])cc(C(F)(F)F)cc1[N+](=O)[O-],49
7,Nc1ccc(Cc2ccc(N)c(Cl)c2)cc1Cl,110
8,CC(=O)SC1CC2=CC(=O)CC(SC(C)=O)C2(C)C2CCC3(C)C(CCC3(C)O)C12 (configuration not stated),206
9,O=[N+]([O-])C=Cc1ccc2c(c1)OCO2,159 to 163
10,CCc1ccc(CCl)cc1,-21
11,Cc1ccc2ccc(C)cc2c1,97
12,CN1CCN(Cc2ccccc2CO)CC1,62 to 64
13,Fc1cccc(Cl)c1CCl,7
14,Cc1ccc(CC#N)cc1,18
15,O=C(CBr)c1cccs1,109 to 111
16,O=S(=O)(Cl)c1ccsc1,44 to 45
17,O=C1C=C2C=C[C@@H]3C[C@@]2(O1)[C@H]1CCCCN31,142
18,c1cc2c(c(NC3=NCCN3)c1)CCCC2,142
19,O=C(Cl)c1cnccn1,150
20,O=C1NC(=O)C([N+](=O)[O-])C(=O)N1,180
21,O=C1c2ccccc2C(=O)C1C(=O)C(c1ccccc1)c1ccc(Cl)cc1 (configuration not stated),140
